The record followed here is US9510598B2, “Nitrogen-containing heterocyclic compounds for plant disease control” (BAYER CROPSCIENCE AG, priority 2012, dated 2016).

Like-named read-outs stand apart in the source and are kept apart here.

One data set concerns Uromyces appendiculatus. In words: In vivo preventive test on Uromyces appendiculatus (bean rust). The settings on record: 500 ppm; bean plants sprayed 24 hours before contamination; grading 10 days after contamination vs control plants. The procedure:
Bean plants (“Saxa” variety), sown in starter cups on a 50/50 peat soil-pozzolana substrate and grown at 24° C., are treated at the 2-leaf stage (9 cm height) by spraying with the active ingredient prepared as described above. Plants, used as controls, are treated with the mixture of acetone/tween/DMSO/water not containing the active material. After 24 hours, the plants are contaminated by spraying the leaves with an aqueous suspension of Uromyces appendiculatus spores (150 000 spores per ml).

Data set [1] is classed as physicochemical.
In another data set the test system is Septoria tritici. Briefly: In vivo preventive test on Septoria tritici (leaf spot on wheat). The note with it: 500 ppm; wheat plants sprayed 24 hours before contamination; grading 21 to 28 days after contamination vs control plants. The method, boiled down:
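Scipion wheat at 1-leaf stage sprayed with compound, controls receiving acetone/tween/DMSO/water vehicle; 24 h later leaves inoculated with Septoria tritici spores (500 000 spores per ml). Efficacy (%) graded versus control plants 21 to 28 days after contamination.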

Another data set has as its system Puccinia recondita. In words: In vivo preventive test on Puccinia recondita (brown rust on wheat). The settings on record: 500 ppm; wheat plants sprayed 24 hours before contamination; grading 10 days after contamination vs control plants. The procedure:
Wheat plants (“Scipion” variety), sown in starter cups on a 50/50 peat soil-pozzolana substrate and grown at 22° C. (12 h)/20° C. (12 h), are treated at the 1-leaf stage (10 cm height) by spraying with the active ingredient prepared as described above. Plants, used as controls, are treated with the mixture of acetone/tween/DMSO/water not containing the active material. After 24 hours, the plants are contaminated by spraying the leaves with an aqueous suspension of Puccinia recondita spores (100 000 spores per ml).

For a further data set, the system named is Sphaerotheca fuliginea. In words: In vivo preventive test on Sphaerotheca fuliginea (powdery mildew on cucurbits). The settings on record: 500 ppm; gherkin plants sprayed 24 hours before contamination; grading 12 days after contamination vs control plants. Summed up: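 Preventive spray of gherkin plants at Z11 cotyledon stage, grown at 24° C; inoculation 24 hours later with Sphaerotheca fuliginea spores (100 000 spores per ml). Efficacy graded 12 days post-inoculation as % versus solvent-treated control plants.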

The next data set concerns Botrytis cinerea. In words: In vivo preventive test on Botrytis cinerea (grey mould). The settings on record: 500 ppm; gherkin plants sprayed 24 hours before contamination; grading 4-5 days after contamination vs control plants. Summed up: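 Gherkin plants ("Vert petit de Paris") sprayed with compound at Z11 cotyledon stage, then inoculated 24 h later with B. cinerea spores (50 000/ml) in PDB/fructose/NH4NO3/KH2PO4 nutrient solution. Incubated at 17 °C, 80% RH; % efficacy versus solvent-treated controls graded 4–5 days after contamination.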

In the next data set the test system is Phytophthora infestans. It is filed as in vivo. The settings on record: 500 ppm; tomato plants sprayed 24 hours before contamination; grading 5 days after contamination vs control plants.
Another data set deals with Pyrenophora teres. In words: In vivo preventive test on Pyrenophora teres (net blotch on barley). The settings on record: 500 ppm; barley plants sprayed 24 hours before contamination; grading 12 days after contamination vs control plants. As to the method: Barley plants (“Plaisant” variety), sown in starter cups on a 50/50 peat soil-pozzolana substrate and grown at 22° C. (12 h)/20° C. (12 h), are treated at the 1-leaf stage (10 cm height) by spraying with the active ingredient prepared as described above. Plants, used as controls, are treated with the mixture of acetone/tween/DMSO/water not containing the active material. After 24 hours, the plants are contaminated by spraying the leaves with an aqueous suspension of Pyrenophora teres spores (12 000 spores per ml). The spores are collected from a 12-day-old culture. […] Grading (% of efficacy) is carried out 12 days after the contamination, in comparison with the control plants.

Where [2] appears, read: method [a]: HPLC/LC-MS on reversed phase at pH 2.7, 0.1% formic acid in water / acetonitrile, gradient 10% to 95% acetonitrile.
Where [3] appears, read: method [a]: HPLC/LC-MS on reversed phase at pH 2.7, 0.1% formic acid in water / acetonitrile, linear gradient 10% to 95% acetonitrile.
The mark [4] stands for this setting: HPLC on reversed phase columns, method [a]: pH 2.7, 0.1% formic acid in water / acetonitrile, linear gradient 10% to 95% acetonitrile.

With `C#Cc1cnc2ccc(C3=NOC(CC)(C(=O)NCC4COC(C)(C)O4)C3)cc2c1` (mixture of isomers) [compound 441], the “% of efficacy (protection)” value with Uromyces appendiculatus was determined as 91%; with Septoria tritici, 100%; in the data set with Puccinia recondita, 83%; in the data set on Sphaerotheca fuliginea it was 94%. Also, in data set [1] (setting [2]), the “log P” value was 2.66[a].

In the case of `C#Cc1cnc2ccc(C3=NOC(OC)(C(=O)NC4CCC4)C3)cc2c1` (racemic) [compound 429], the “% of efficacy (protection)” value in the data set with Uromyces appendiculatus stood at 71%; with Septoria tritici, 100%; in the data set on Puccinia recondita, 89%; in the data set with Sphaerotheca fuliginea, 83%; in the data set on Botrytis cinerea, 100%. Moreover, in data set [1] (setting [2]), the “log P” value was 2.54[a].

As for `C#Cc1cnc2ccc(C3=NOC(CC)(C(=O)NCc4cn(CC)nc4C)C3)cc2c1` (racemic) [compound 438], the “% of efficacy (protection)” value worked out at 97% in the data set on Uromyces appendiculatus; 100% in the data set with Septoria tritici; 88% in the data set with Puccinia recondita; 89% in the data set on Sphaerotheca fuliginea; 87% with Phytophthora infestans. Besides, the “log P” value in data set [1] (setting [2]) is 2.37[a].

On to `C#Cc1cnc2ccc(C3=NOC(CC)(C(=O)NCCCOCC)C3)cc2c1` (racemic) [compound 440], for which the “% of efficacy (protection)” value in the data set with Pyrenophora teres is recorded as 75%; with Sphaerotheca fuliginea it was 89%. For the same molecule, the “log P” value in data set [1] (setting [2]) is 2.73[a].

`C#Cc1cnc2ccc(C3=NOC(OC)(C(=O)NCc4cn(CC)nc4C)C3)cc2c1` (racemic) [compound 442]: the “% of efficacy (protection)” value in the data set with Uromyces appendiculatus was 88%; in the data set with Septoria tritici it was 97%; in the data set on Puccinia recondita, 89%; in the data set on Sphaerotheca fuliginea, 100%; in the data set on Phytophthora infestans, 94%; with Botrytis cinerea, 100%. For the same molecule, the “log P” value in data set [1] (setting [2]) is 2.14[a].

For `C#Cc1cnc2ccc(C3=NOC(CC)(C(=O)NC4CCC4)C3)cc2c1` (racemic) [compound 447], the “% of efficacy (protection)” value with Uromyces appendiculatus is 100%; with Septoria tritici it was 75%; in the data set with Puccinia recondita, 89%; with Sphaerotheca fuliginea, 75%; in the data set on Botrytis cinerea, 97%. Also, the “log P” value in data set [1] (setting [2]) is 2.94[a].

In the case of `COC1(C(=O)NC2CC2)CC(c2ccc3ncc(I)cc3c2)=NO1` (racemic) [compound 450], the “% of efficacy (protection)” value with Uromyces appendiculatus amounted to 91%; in the data set with Septoria tritici, 98%; in the data set on Puccinia recondita, 89%; in the data set with Sphaerotheca fuliginea, 98%; in the data set on Botrytis cinerea it was 100%. In addition, the “log P” value in data set [1] (setting [2]) was 2.48[a].

`CC1(C(=O)NCc2ccc3c(c2)CCO3)CC(c2ccc3ncc(Br)cc3c2)=NO1` (stereo not drawn) [compound 122]: in the data set with Pyrenophora teres, the “% of efficacy (protection)” value amounted to 86%. Besides, the “log P” value in data set [1] (setting [3]) was 3.13^[a].

Consider `CCn1cc(CNC(=O)C2(C)CC(c3ccc4ncc(-c5ccccc5)cc4c3)=NO2)c(C)n1` (stereo not drawn) [compound 140], for which the “% of efficacy (protection)” value in the data set on Uromyces appendiculatus is recorded as 96%; in the data set on Septoria tritici, 80%; in the data set on Puccinia recondita, 81%; in the data set with Sphaerotheca fuliginea it was 83%. For the same molecule, the “log P” value in data set [1] (setting [3]) is 2.63^[a].

For `C#Cc1cnc2ccc(C3=NOC(C)(C(=O)NCc4ccccc4)C3)cc2c1` (stereo not drawn) [compound 169], the “% of efficacy (protection)” value came out at 79% with Pyrenophora teres, 100% in the data set with Septoria tritici and 100% in the data set on Botrytis cinerea. In data set [1] (setting [3]), the “log P” value is 2.86^[a].

Regarding `Cc1nn(C)c(C)c1CNC(=O)C1(C)CC(c2ccc3ncc(Br)cc3c2)=NO1` (stereo not drawn) [compound 177], the “% of efficacy (protection)” value in the data set with Pyrenophora teres is listed as 86%. Further, in data set [1] (setting [3]), the “log P” value is 2.13^[a].

In the case of `Cc1c(CNC(=O)C2(C)CC(c3ccc4ncc(Br)cc4c3)=NO2)cnn1C` (stereo not drawn) [compound 179], the “% of efficacy (protection)” value in the data set on Pyrenophora teres came out at 86%. The “log P” value in data set [1] (setting [3]) was 2.15^[a].

As to `C#Cc1cnc2ccc(C3=NOC(C)(C(=O)NCc4ccc(Cl)cc4)C3)cc2c1` (stereo not drawn) [compound 200], the “% of efficacy (protection)” value with Pyrenophora teres is on record as 71%. Further, the “log P” value in data set [1] (setting [3]) is 3.23^[a].

As for `C#Cc1cnc2ccc(C3=NOC(C)(C(=O)NCc4cccc5ccccc45)C3)cc2c1` (stereo not drawn) [compound 225], in the data set on Pyrenophora teres, the “% of efficacy (protection)” value worked out at 79%. Also, the “log P” value in data set [1] (setting [3]) is 3.46^[a].

With `CCc1cnc2ccc(C3=NOC(C)(C(=O)NCc4cn(CC)nc4C)C3)cc2c1` (stereo not drawn) [compound 256], the results for the “% of efficacy (protection)” value in the data set on Pyrenophora teres and in the data set with Septoria tritici were 75% and 100%, respectively. For the same molecule, the “log P” value in data set [1] (setting [4]) was 1.72^[a].

As to `Cc1cnc2ccc(C3=NOC(C)(C(=O)NC(C)C)C3)cc2c1` (stereo not drawn) [compound 260], the “% of efficacy (protection)” value in the data set on Pyrenophora teres turned out to be 75%; in the data set on Septoria tritici it was 98%; in the data set on Phytophthora infestans it was 90%; in the data set with Botrytis cinerea it was 75%. Also, the “log P” value in data set [1] (setting [4]) was 1.63^[a].

Consider `C#Cc1cnc2ccc(C3=NOC(OC)(C(=O)NC(C)C)C3)cc2c1` (stereo not drawn) [compound 406], for which the “% of efficacy (protection)” value in the data set on Pyrenophora teres is 83%; in the data set on Septoria tritici, 100%; in the data set on Sphaerotheca fuliginea, 100%. The “log P” value in data set [1] (setting [2]) was 2.35[a].

As for `COC1(C(=O)NC2CCC2)CC(c2ccc3ncc(Br)cc3c2)=NO1` (stereo not drawn) [compound 414], the “% of efficacy (protection)” value in the data set with Uromyces appendiculatus is listed as 100%; with Septoria tritici, 100%; in the data set on Puccinia recondita, 89%; with Sphaerotheca fuliginea, 98%; with Botrytis cinerea, 100%. Further, in data set [1] (setting [2]), the “log P” value was 2.84[a].

With `COC1C(c2ccc3ncc(Br)cc3c2)=NOC1(C)C(=O)NC(C)C` (stereo not drawn) [compound 419], the “% of efficacy (protection)” value in the data set with Pyrenophora teres stood at 75%. For the same molecule, the “log P” value in data set [1] (setting [2]) was 2.91[a].

In the case of `C#Cc1cnc2ccc(C3=NOC(OC)(C(=O)NCC4COC(C)(C)O4)C3)cc2c1` (stereo not drawn) [compound 476], the “% of efficacy (protection)” value is on record as 77% with Uromyces appendiculatus; 97% in the data set with Septoria tritici; 90% in the data set with Puccinia recondita; 98% with Sphaerotheca fuliginea; 85% in the data set with Phytophthora infestans; 100% in the data set with Botrytis cinerea. For the same molecule, the “log P” value in data set [1] (setting [2]) was 2.35[a].

As to `COC1(C(=O)NCC(O)CO)CC(c2ccc3ncc(Br)cc3c2)=NO1` (stereo not drawn) [compound 477], the “% of efficacy (protection)” value in the data set on Uromyces appendiculatus is 86%; with Puccinia recondita, 90%; in the data set on Sphaerotheca fuliginea, 75%; in the data set with Phytophthora infestans, 98%. Moreover, the “log P” value in data set [1] (setting [2]) was 1.59[a].

As to `COC1(C(=O)NC2CCC2)CC(c2ccc3ncc(I)cc3c2)=NO1` (stereo not drawn) [compound 482], the “% of efficacy (protection)” value with Uromyces appendiculatus was 98%; in the data set on Septoria tritici it was 100%; in the data set with Puccinia recondita, 83%; with Sphaerotheca fuliginea it was 100%; with Botrytis cinerea it was 100%. Moreover, the “log P” value in data set [1] (setting [2]) was 2.95[a].

As for `C=C(C)C1(C(=O)NCC2COC(C)(C)O2)CC(c2ccc3ncc(Br)cc3c2)=NO1` (stereo not drawn) [compound 520], the “% of efficacy (protection)” value is 88% in the data set with Pyrenophora teres and 79% in the data set on Septoria tritici. Also, the “log P” value in data set [1] (setting [4]) is 3.29[a].
